The values below come from US20110245242A1, “Heterocyclically Substituted Anilinopyrimides” (Bayer CropScience AG, priority 2008, published 2011).

Where two headings read alike, the source gives them in different places. Marks after values point to notes of the source that are not given here.

Data set [1] is described as follows: physchem. Particulars: pH 7. The data set is classed as physicochemical.
The test system of another data set is Sphaerotheca fuliginea. The data set can be described thus: Sphaerotheca test (cucumber)/protective. The data set is classed as in vivo. Conditions: Podosphaera fuliginea, 168 h, active compound concentration of 500 ppm, protective, evaluation 7 days after the inoculation, read-out: efficacy.
Data set [2] can be described thus: log P by HPLC on reversed-phase columns (C 18), method [a], acidic range pH 2.3. The data set is classed as physicochemical. The protocol: The log P values were measured in accordance with EEC Directive 79/831 Annex V.A8 by HPLC (High Performance Liquid Chromatography) on reversed-phase columns (C 18) using the methods below: [a] The determination was carried out in the acidic range at pH 2.3 using the mobile phases 0.1% aqueous phosphoric acid and acetronitrile linear gradient from 10% acetonitrile to 95% acetronitrile.

Data set [3] can be described thus: physchem. The data set is classed as physicochemical. Particulars: pH 7.8. The protocol:
The log P values were measured in accordance with EEC Directive 79/831 Annex V.A8 by HPLC (High Performance Liquid Chromatography) on reversed-phase columns (C 18) using the methods below: [c] The LC-MS determination in the neutral range was carried out at pH 7.8 using the mobile phases 0.001 molar aqueous ammonium bicarbonate solution and acetonitrile linear gradient from 10% acetonitrile to 95% acetonitrile.

The nature of data set [4]: log P by LC-MS, method [b], acid range pH 2.7. Conditions: pH 2.7. The data set is classed as physicochemical. The method, then: The log P values were measured in accordance with EEC Directive 79/831 Annex V.A8 by HPLC (High Performance Liquid Chromatography) on reversed-phase columns (C 18) using the methods below:
[b] The LC-MS determination in the acid range was carried out at pH 2.7 using the mobile phases 0.1% aqueous formic acid and acetonitrile (contains 0.1% formic acid)
linear gradient from 10% acetonitrile to 95% acetonitrile.

The next data set concerns Fusarium graminearum. The data set can be described thus: microbe, parasite or virus in culture. Conditions: 168 h, read-out: activity in the inhibition of DON/AcDON. The data set is classed as cell-based.
The test system of a further data set is Fusarium proliferatum. Put plainly: Production of Fumonisin FB1 by Fusarium proliferatum (microtitre plates; FB1 by HPLC-MS/MS, growth by OD620). The data set is classed as cell-based. Conditions: for IC50: Fusarium proliferatum, 144 h.
Data set [5] is classed as physicochemical. The method, then: The log P values were measured in accordance with EEC Directive 79/831 Annex V.A8 by HPLC (High Performance Liquid Chromatography) on reversed-phase columns (C 18) using the methods below: […]
For another data set, the system named is Phakopsora pachyrhizi. Put plainly: Phakopsora test (soya beans)/protective. Particulars: active compound concentration of 250 ppm, protective, evaluation 1 day after the inoculation. The data set is classed as in vivo.
Where [6] appears, read: FB1 concentration in liquid medium after 6 days at 20° C., HPLC-MS/MS.

What is called chromatographic logP is a lipophilicity value derived from retention on a column. With `S=C1CCCN1c1cccc(Nc2ncc(Cl)c(NC3CC3)n2)c1` [Example 33, 1-(3-{[5-Chloro-4-(cyclopropylamino)pyrimidin-2-yl]amino}phenyl)pyrrolidine-2-thione], the chromatographic logP in “physchem [1]” came out at 2.54; in data set [2] (pH 2.3, log p), 1.69; in the data set “physchem [3]”, 2.54. The pest or weed control at 500 ppm with Sphaerotheca fuliginea was ≥ 70%.
Regarding `O=C1OCCN1c1cccc(Nc2ncc(Cl)c(NC3CCC3)n2)c1` [Example 59, 3-(3-{[5-Chloro-4-(cyclobutylamino)pyrimidin-2-yl]amino}phenyl)-1,3-oxazolidin-2-one], the chromatographic logP came out at 1.64 in data set [4]; 1.64 in data set [2] (pH 2.3, log P (pH 2.3)); 1.64 in data set [2] (pH 2.3, log p). For the same molecule, in the data set with Sphaerotheca fuliginea, the pest or weed control at 500 ppm was ≥ 70%. Moreover, the inhibition at 50 µM in the data set with Fusarium graminearum is > 80%. The IC50 with Fusarium proliferatum (FB1 concentration in liquid medium after 6 days at 20° C., HPLC-MS/MS, read-out: pI50 Fum (converted)) is 0.631 µM; in the data set with Fusarium proliferatum (OD620 at the beginning and after 6 days, read-out: pI50 growth (converted)) it was 2.51 µM.
Regarding `O=C1CCC(=O)N1c1cccc(Nc2ncc(Cl)c(NC3CC3)n2)c1` [Example 195], the log p in [5] is 0.99[d]; in “physchem [3]” it was 1.98[c];. In the data set on Fusarium proliferatum (setting [6]), the “pI50 Fum” value is 6.2.
Take `FC(F)(F)c1cnc(Nc2cccc(N3CCCC3=S)c2)nc1NC1CC1` [Example 214]: the log p in [4] was 2.59[b]; in the data set “physchem [3]” it was 2.86[c];. In addition, the efficacy in the data set with Phakopsora pachyrhizi was ≥ 80%. In addition, the “pI50 Fum” value in the data set on Fusarium proliferatum (setting [6]) was 5.1. Further, the pI50 growth in the data set on Fusarium proliferatum (OD620 at the beginning and after 6 days) is given as 5.
